Test results from US20260166162A1, “CARBON CHAIN SUBSTANCE FOR REGULATING TRANSMEMBRANE TRANSPORT AND FLUIDITY OF CELL MEMBRANES, AND PREPARATION AND USE THEREOF” (priority 2022, published 2026).
Values joined by “and” are separate entries in the source; they are usually repeats but may differ in a detail not shown here. Equal values may be shown once. Read-outs that look alike come from different tables or passages of the source.

Key:
[1] = test system: Escherichia coli; assay: Bacteriostasis/sterilization test (plate count); assay type: cell-based
[2] = test system: Staphylococcus aureus; assay: Bacteriostasis/sterilization test (plate count); assay type: cell-based; settings: for inhibition rate: concentration 0.035 mM; for IC50: read-out: half inhibition concentration
[3] = test system: Methicillin-resistant Staphylococcus aureus; assay: Bacteriostasis/sterilization test (plate count); assay type: cell-based; settings: 0.035 mM (Table 25)
[4] = test system: Streptococcus pneumoniae; assay: Bacteriostasis/sterilization test (plate count); assay type: cell-based
[5] = test system: Klebsiella pneumoniae; assay: Bacteriostasis/sterilization test (plate count); assay type: cell-based
[6] = test system: Pseudomonas aeruginosa; assay: Bacteriostasis/sterilization test (plate count); assay type: cell-based
[7] = test system: H7N9 pseudovirus; assay type: cell-based, Influenza pseudovirus H7N9-Fluc
[8] = test system: H5N1 pseudovirus; assay type: cell-based, Influenza pseudovirus H5N1-Fluc
[9] = test system: HIV pseudovirus; assay type: cell-based, HIV pseudovirus HIV18A-41
[10] = test system: SARS-CoV-2 pseudovirus; assay type: cell-based, SARS-CoV-2 pseudovirus B.1.526.2
[11] = test system: SARS-CoV-2 pseudovirus; set-up: species or system SARS-CoV-2 pseudovirus B.1.526.2
[12] = mouse, in vivo, po
[13] = test system: VERO E6 cells; assay: Cytotoxicity (CCK-8) on VERO E6 cells; settings: […] to 0.035 mM
[14] = test system: Human hair follicle stem cells; assay: Human hair follicle stem cell proliferation (EdU); assay type: cell-based; settings: 20 μM, 30 μM, 50 μM, 6 h
[15] = test system: Hela cells; assay: Cell membrane fluidity (Laurdan fluorescence recovery) in Hela cells; assay type: cell-based
[16] = test system: TNF-α; assay: Skin photoaging (UVB) in BALB/c nude mice, serum TNF-α (Example II-54, Table II-32); assay type: in vivo, mouse; settings: UVB-irradiated BALB/c nude mice, 40 days
[17] = test system: IL-1β; assay: Skin photoaging (UVB) in BALB/c nude mice, serum IL-1β (Example II-54, Table II-33); assay type: in vivo, mouse
[18] = test system: IL-6; assay: Skin photoaging (UVB) in BALB/c nude mice, serum IL-6 (Example II-54, Table II-34); assay type: in vivo, mouse
[19] = test system: IL-1β; assay: LPS inflammatory aging in C57BL/6 mice, serum IL-1β (Example II-55, Table II-35); assay type: in vivo, mouse; settings: 1 mM, 200 μl/time, once a day, 30 days
[20] = test system: IL-6; assay: LPS inflammatory aging in C57BL/6 mice, serum IL-6 (Example II-55, Table II-36); assay type: in vivo, mouse
[21] = test system: TNF-α; assay: LPS inflammatory aging in C57BL/6 mice, serum TNF-α (Example II-55, Table II-37); assay type: in vivo, mouse; settings: 1 mM, 200 μl/time once a day for 30 days, LPS C57BL/6 mice
[22] = test system: Hela cells; assay: Cell migration (scratch) in Hela cells; assay type: cell-based; settings: 24 h
Protocol: Hela cells in logarithmic growth phase (cell bank of Chinese Academy of Sciences) were trypsinized into a single cell suspension and inoculated into a 6-well culture plate. […] The next day 5 nM Thr-EPA was added by scratching with a 200-microliter gun tip against the horizontal line on the vertical back of the lid of the 6-well plate. 24 h later, samples were taken and photographed. […] Hela cells in logarithmic growth phase (cell bank of Chinese Academy of Sciences) were trypsinized into a single cell suspension and inoculated into a 6-well culture plate. […] The next day […] Thr-EPA was added by scratching with a 200-microliter gun tip against the horizontal line on the vertical back of the lid of the 6-well plate. 24 h later, samples were taken and photographed.

[23] = test system: Hela cells; assay: Phagocytosis of adriamycin-loaded ferroferric oxide nanoparticles by Hela cells; assay type: cell-based; settings: 5 nM for 1 h, then nanoparticles 4 h
Protocol: Hela cells (cell bank, Chinese Academy of Sciences) were seeded in a 6-well plate at a density of 1.0*10^5 and cultured for 24 h. The cells were treated with 5 nM Ser-EPA for 1 h and washed to remove Ser-EPA. Adriamycin-loaded ferroferric oxide nanoparticles were added followed by incubation for 4 h. Then, the cells were washed with PBS, stained with DAPI, and observed with confocal microscope.

[24] = test system: HPV pseudovirus (HPV6-GFP); settings: read-out: median neutralization concentration
[25] = 30 μM smeared, serum, UVB-irradiated BALB/c nude mice, 40 days
[26] = 50 μM smeared, serum, UVB-irradiated BALB/c nude mice, 40 days
[27] = 100 μM smeared, serum, UVB-irradiated BALB/c nude mice, 40 days

Structure (SMILES): CCC=CCC=CCC=CCC=CCC=CCC=CCCC(=O)NCCCCC(N)C(=O)O (stereo not shown)
- Inhibition rate (%) [1]: 99%
- Inhibition rate (%) [2]: 99%
- inhibition rate [2]: greater than 99%
- IC50 [2]: 9 µM
- Inhibition rate (%) [3]: 99%
- Inhibition rate (%) [4]: 99%
- Inhibition rate (%) [5]: 99%
- Inhibition rate (%) [6]: 99%
- Sterilization rate (%) [7]: 99%
- Sterilization rate (%) [8]: 99%
- Sterilization rate (%) [9]: 99%
- Sterilization rate (%) [10]: 99%
- membrane structure of the virus (TEM) [11]: broken
- liver, heart, kidney, bone/hepatobiliary function in blood versus control group [12]: no difference
- physiological state, body weight, fur color, food consumption, mental state versus control group [12]: not significantly different
- effect of the complex on cells [13]: less than 10%

Structure (SMILES): CC/C=C\C/C=C\C/C=C\CCCCCCCC(=O)NCCCCC(N)C(=O)O (stereo not shown) [Lys-ALA]
- proliferation of human hair follicle stem cells [14]: effectively promote the proliferation

Structure (SMILES): CCC=CCC=CCC=CCC=CCC=CCC=CCCC(=O)OC(C)C(N)C(=O)O (stereo not shown)
- Inhibition rate (%) ([1]; 0.035 mM (Table 25)): 99%
- Inhibition rate (%) ([2]; 0.035 mM (Table 25)): 99%
- inhibition rate [2]: greater than 99%
- IC50 [2]: 9 µM
- Inhibition rate (%) [3]: 99%
- Inhibition rate (%) ([4]; 0.035 mM (Table 25)): 99%
- Inhibition rate (%) ([5]; 0.035 mM (Table 25)): 99%
- Inhibition rate (%) ([6]; 0.035 mM (Table 25)): 99%
- Sterilization rate (%) [7]: 99%
- Sterilization rate (%) [8]: 99%
- Sterilization rate (%) [9]: 99%
- Sterilization rate (%) [10]: 99%
- membrane structure of the virus (TEM) [11]: broken
- Fluorescence recovery rate % ([15]; 2 nM, 20 s): 65.48%
- Fluorescence recovery rate % ([15]; 2 nM, 40 s): 66.31%
- Fluorescence recovery rate % ([15]; 2 nM, 60 s): 66.25%
- Fluorescence recovery rate % ([15]; 2 nM, 80 s): 66.78%
- Fluorescence recovery rate % ([15]; 5 nM, 20 s): 65.47%
- Fluorescence recovery rate % ([15]; 5 nM, 40 s): 65.23%
- Fluorescence recovery rate % ([15]; 5 nM, 60 s): 65.38%
- Fluorescence recovery rate % ([15]; 5 nM, 80 s): 66.45%
- Fluorescence recovery rate % ([15]; 10 nM, 20 s): 65.89%
- Fluorescence recovery rate % ([15]; 10 nM, 40 s): 66.04%
- Fluorescence recovery rate % ([15]; 10 nM, 60 s): 66.59%
- Fluorescence recovery rate % ([15]; 10 nM, 80 s): 66.71%
- Fluorescence recovery rate % ([15]; 50 nM, 20 s): 67.42%
- Fluorescence recovery rate % ([15]; 50 nM, 40 s): 67.43%
- Fluorescence recovery rate % ([15]; 50 nM, 60 s): 67.57%
- Fluorescence recovery rate % ([15]; 50 nM, 80 s): 68.06%
- Fluorescence recovery rate % ([15]; 50 μM, 20 s): 66.54%
- Fluorescence recovery rate % ([15]; 50 μM, 40 s): 73.45%
- Fluorescence recovery rate % ([15]; 50 μM, 60 s): 77.91%
- Fluorescence recovery rate % ([15]; 50 μM, 80 s): 84.66%
- Fluorescence recovery rate % ([15]; 100 μM, 20 s): 66.60%
- Fluorescence recovery rate % ([15]; 100 μM, 40 s): 74.67%
- Fluorescence recovery rate % ([15]; 100 μM, 60 s): 78.31%
- Fluorescence recovery rate % ([15]; 100 μM, 80 s): 86.44%
- TNF-α ([16]; 30 μM smeared): 53 pg/mL
- TNF-α ([16]; 50 μM smeared): 47 pg/mL
- TNF-α ([16]; 100 μM smeared): 49 pg/mL
- IL-1β [17, 25]: 54 pg/mL
- IL-1β [17, 26]: 56 pg/mL
- IL-1β [17, 27]: 50 pg/mL
- IL-6 [18, 25]: 36 pg/mL
- IL-6 [18, 26]: 35 pg/mL
- IL-6 [18, 27]: 34 pg/mL
- IL-1β [19]: 55 pg/mL
- IL-6 ([20]; 1 mM, 200 μl/time once a day for 30 days, serum, LPS C57BL/6 mice): 50 pg/mL
- TNF-α [21]: 53 pg/mL

Structure (SMILES): CCC=CCC=CCC=CCC=CCC=CCCCC(=O)OC(C)C(N)C(=O)O (stereo not shown) [Thr-EPA]
- cell migration ([22]; 5 nM): inhibited cell migration
- cell migration ([22]; 50 µM): promoted cell migration

Structure (SMILES): CCC=CCC=CCC=CCC=CCC=CCCCC(=O)NC(CO)C(=O)O (stereo not shown) [Ser-EPA, Serine-EPA]
- phagocytosis of nanoparticles by treated cells [23]: significantly inhibited
- Fluorescence recovery rate % ([15]; 2 nM, 20 s): 63.44%
- Fluorescence recovery rate % ([15]; 2 nM, 40 s): 65.36%
- Fluorescence recovery rate % ([15]; 2 nM, 60 s): 65.21%
- Fluorescence recovery rate % ([15]; 2 nM, 80 s): 66.35%
- Fluorescence recovery rate % ([15]; 5 nM, 20 s): 64.73%
- Fluorescence recovery rate % ([15]; 5 nM, 40 s): 64.59%
- Fluorescence recovery rate % ([15]; 5 nM, 60 s): 65.66%
- Fluorescence recovery rate % ([15]; 5 nM, 80 s): 67.97%
- Fluorescence recovery rate % ([15]; 10 nM, 20 s): 64.66%
- Fluorescence recovery rate % ([15]; 10 nM, 40 s): 65.11%
- Fluorescence recovery rate % ([15]; 10 nM, 60 s): 65.24%
- Fluorescence recovery rate % ([15]; 10 nM, 80 s): 66.83%
- Fluorescence recovery rate % ([15]; 50 nM, 20 s): 62.84%
- Fluorescence recovery rate % ([15]; 50 nM, 40 s): 62.94%
- Fluorescence recovery rate % ([15]; 50 nM, 60 s): 63.04%
- Fluorescence recovery rate % ([15]; 50 nM, 80 s): 64.54%
- Fluorescence recovery rate % ([15]; 50 μM, 20 s): 64.33%
- Fluorescence recovery rate % ([15]; 50 μM, 40 s): 72.49%
- Fluorescence recovery rate % ([15]; 50 μM, 60 s): 73.77%
- Fluorescence recovery rate % ([15]; 50 μM, 80 s): 81.40%
- Fluorescence recovery rate % ([15]; 100 μM, 20 s): 65.72%
- Fluorescence recovery rate % ([15]; 100 μM, 40 s): 72.99%
- Fluorescence recovery rate % ([15]; 100 μM, 60 s): 74.34%
- Fluorescence recovery rate % ([15]; 100 μM, 80 s): 80.39%
- TNF-α ([16]; 30 μM smeared): 54 pg/mL
- TNF-α ([16]; 50 μM smeared): 49 pg/mL
- TNF-α ([16]; 100 μM smeared): 44 pg/mL
- IL-1β ([17]; mouse, in vivo): 57 pg/mL and 61 pg/mL and 54 pg/mL
- IL-6 ([18]; mouse, in vivo): 41 pg/mL and 38 pg/mL and 39 pg/mL
- IL-1β [19]: 48 pg/mL
- IL-6 ([20]; mouse, in vivo): 47 pg/mL
- TNF-α [21]: 48 pg/mL

Structure (SMILES): CCC=CCC=CCC=CCC=CCC=CCC=CCCC(=O)OCC(N)C(=O)O (stereo not shown)
- Inhibition rate (%) ([1]; 0.035 mM (Table 25)): 99%
- Inhibition rate (%) ([2]; 0.035 mM (Table 25)): 99%
- inhibition rate [2]: greater than 99%
- IC50 [2]: 9 µM
- Inhibition rate (%) [3]: 99%
- Inhibition rate (%) ([4]; 0.035 mM (Table 25)): 99%
- Inhibition rate (%) ([5]; 0.035 mM (Table 25)): 99%
- Inhibition rate (%) ([6]; 0.035 mM (Table 25)): 99%
- Sterilization rate (%) [7]: 99%
- Sterilization rate (%) [8]: 99%
- Sterilization rate (%) [9]: 99%
- Sterilization rate (%) [10]: 99%
- proliferation of human hair follicle stem cells [14]: effectively promote the proliferation
- IC50 [24]: 9 µM
